Key:
[1] = system: 11778 (G>A) mutant cybrid; assay: Mitochondrial copy number (MT-TL1/B2M ratio), mutant cybrids; format: cell-based; settings: LHON mutant cells [11778(G>A)]; 24 hrs exposure
Protocol: (§1) FIGS. 14A-14C illustrate the effect of drugs on the mitochondrial copy number. Difference of mitochondrial copy number between 11778 (G>A) mutant and control cybrids (FIG. 14A). Effect of zolpidem and papaverine on the control healthy cybrid mitochondrial copy number (FIG. 14B) and 11778 (G>A) mutant cybrid mitochondrial copy number (FIG. 14C). Cells were treated with either vehicle or one of the drugs at specified concentration for 24 h. The cells were harvested after 24 h and the ratio between MT-TL1 and B2M was determined. Data is presented as average relative fold change±std. deviation from three independent observations. Statistical significance (p<0.05) is denoted by ‘*’ and was determined by one way ANOVA and Dunett's post hoc test.

Ndufs4 KO mice [2] = assay: Microglia activation (Iba1 staining of whole mount retinas); format: in vivo, mouse; settings: two weeks (P21-P35) intraperitoneal treatment
Ndufs4 knockout mice = assay: Visual cliff test; format: in vivo, mouse; settings: P21-P35 treatment; papaverine 20 mg/kg, zolpidem 20 mg/kg, rapamycin 8 mg/kg i.p.; idebenone 200 mg/kg oral
Ndufs4 KO mice [3] = assay: Starburst amacrine cell count (ChAT staining of whole retina); format: in vivo, mouse; settings: two weeks (P21-P35) intraperitoneal injections
Protocol: 20× confocal images of whole retina stained with ChAT (marker of starburst amacrine cells) from wild type (FIG. 22A), Ndusf4 KO vehicle treated (FIG. 22B), Ndufs4 KO papaverine treated (FIG. 22C), Ndufs4 KO zolpidem treated (FIG. 22D), and Ndufs4 KO rapamycin treated (FIG. 22E) are shown.
(§2) Wild type and Ndufs4 knockout mice were placed in one of five groups: vehicle, papaverine (20 mg/kg), zolpidem (20 mg/kg), rapamycin (8 mg/kg), or idebenone (200 mg/kg). For papaverine, zolpidem, and rapamycin, drug was dissolved in DMSO which was diluted in 5% PEG-400/5% Tween-20 in PBS. Vehicle contained all components except for the drug. The solution was then sterile filtered and intraperitoneal injections were performed using a 30 gauge needle. Idebenone was administered as a jelly and consumed orally.

[4] = system: innate immune/inflammatory response in Ndufs4 KO retina; assay: Retinal gene expression of innate immune and inflammatory markers after drug treatment (Example 3); format: in vivo, mouse; settings: Ndufs4 KO mice; doses as in drug formulation
Protocol: The graphs represent RNA expression of B2m (FIG. 21A), Tlr2 (FIG. 21B), Cxc110 (FIG. 21C), Cc15 (FIG. 21D), and Aif1 (FIG. 21E) in the wild type and Ndufs4 knockout retina. Bars represent mean delta Ct values normalized to housekeeping genes, Actb and Mapk1. Error bars represent standard error of the mean. Statistical significance was determined by two-tailed student's t test. * P<0.05, ** P<0.01, **** P<0.0001.
as §2
We have previously shown that inflammatory gene expression of Aif1, Tlr2, B2m, Cc15, and Cxc110 are all elevated in the Ndufs4 KO mouse compared to wild type by more than 3-fold, indicating an inflammatory pathomechanism of mitochondrial blindness (Yu et al., Proc Natl Acad Sci USA, 2015, 112(42): E5689-98). […] Papaverine, zolpidem, rapamycin, and idebenone were administered to Ndufs4 KO mice to determine whether their protection of vision (FIG. 20) was through an anti-inflammatory mechanism of action. […] Thus, papaverine, zolpidem, and rapamycin appear to protect mitochondrial loss of vision through an antiinflammatory mechanism.

LHON cybrids (11778 G>A) = assay: Complex I-driven ATP synthesis in rotenone-inhibited LHON mutant cybrids (luciferase-based, high-throughput screen and concentration-response); format: cell-based
[5] = system: permeabilized LHON mutant (11778 G>A) cells; assay: Complex I-driven ATP synthesis, drug applied to permeabilized LHON mutant cells; format: cell-based; settings: permeabilized cells (30 min) instead of intact cells (2 h); rotenone 0.03 μM
Protocol: Cells were permeabilized with streptolysin O and mitochondrial complex I-driven ATP synthesis was measured in presence of complex I substrates (malate/pyruvate). […] Intact cells were permeabilized with streptolysin O and mitochondrial complex I-driven ATP synthesis was measured in presence of complex I substrates (malate/pyruvate).

control healthy cybrid = assay: Mitochondrial copy number (MT-TL1/B2M ratio), control cybrids; format: cell-based; settings: control cells; 24 hrs exposure
Protocol: as §1

control cybrids = assay: Papaverine response in rotenone-inhibited control cybrids; format: cell-based
Text: FIG. 19A depicts response to papaverine in control cybrids. FIG. 19B depicts response to papaverine in mutant cybrids.

Structure (SMILES): COc1ccc(Cc2nccc3cc(OC)c(OC)cc23)cc1OC [papaverine]
- ratio of mtDNA/nDNA [1]: did not significantly change the ratio of mtDNA/nDNA
- microglia activation (Ndufs4 KO mice [2]): significant inhibition of microglia activation
- visual function (median # edge detections) (Ndufs4 knockout mice): visual function was preserved
- starburst amacrine cell loss (Ndufs4 KO mice [3]): less cell loss than vehicle-treated Ndufs4 KO mice
- innate immune/inflammatory gene expression (B2m, Tlr2, Cxcl10, Ccl5, Aif1) in retina [4]: significantly inhibited a portion of the innate immune/inflammatory response
- fold induction at 10 µM (LHON cybrids (11778 G>A); 20 h, read-out: Fold change of ATP synthesis rate greater than 2x Median Absolution Deviation): 2.4
- reversal of rotenone sensitivity of complex I-driven ATP synthesis (LHON cybrids (11778 G>A); different concentrations of drug 22 h, then rotenone 0.03 μM 2 h): dose-dependently reversed the rotenone sensitivity
- protective effect with short treatment of intact cells (LHON cybrids (11778 G>A); intact cells treated with papaverine and rotenone 0.03 μM for 2 hrs): protective effect of papaverine was observed
- concentration-dependent reversal of rotenone-induced ATP synthesis inhibition, comparison of the two hits (LHON cybrids (11778 G>A); papaverine vs zolpidem): stronger than Zolpidem
- complex I driven ATP production in permeabilized cells [5]: inhibited complex I driven ATP production
- ratio of mtDNA/nDNA (control healthy cybrid): did not significantly change the ratio of mtDNA/nDNA
- complex 1-dependent ATP synthesis in normal cells inhibited by rotenone (control cybrids): dose dependently stimulates complex 1-dependent ATP synthesis

From patent publication US10792287B2, “Methods for treating mitochondrial diseases” (The Regents of the University of California, priority 2015, dated 2020)
